Source: ChEMBL document CHEMBL1811901, “Bioactive sulfoximines: syntheses and properties of Vioxx analogs” (Bioorg Med Chem Lett, 2011)

Experiments:
[1] = biological target: T1, Prostaglandin G/H synthase 1 (Homo sapiens, UniProt P23219); assay: Inhibition of human platelets COX1 assessed as PGE2 production using arachidonic acid as substrate at 10 uM preincubated for 15 mins measured after 15 mins by EIA
[2] = biological target: T2, hERG (KCNH2) (Homo sapiens, UniProt Q12809); assay: Inhibition of human ERG expressed in HEK293 cells assessed as inhibition of tail current at holding potential of -70 mV at 100 uM after 10 mins by whole-cell patch clamp method; type: cell-based; details: HEK293 cells that express hERG
[3] = biological target: T2, hERG (KCNH2); assay: Inhibition of human ERG expressed in HEK293 cells assessed as inhibition of tail current at holding potential of -70 mV at 3.16 uM after 10 mins by whole-cell patch clamp method; type: cell-based; details: HEK293 cells that express hERG
[4] = biological target: T2, hERG (KCNH2); assay: Inhibition of human ERG expressed in HEK293 cells assessed as inhibition of tail current at holding potential of -70 mV at 31.6 uM after 10 mins by whole-cell patch clamp method; type: cell-based; details: HEK293 cells that express hERG
[5] = biological target: T2, hERG (KCNH2); assay: Inhibition of human ERG expressed in HEK293 cells assessed as inhibition of tail current at holding potential of -70 mV at 10 uM after 10 mins by whole-cell patch clamp method; type: cell-based; details: HEK293 cells that express hERG
[6] = biological target: T2, hERG (KCNH2); assay: Inhibition of human ERG expressed in HEK293 cells assessed as inhibition of tail current at holding potential of -70 mV at 1 uM after 10 mins by whole-cell patch clamp method; type: cell-based; details: HEK293 cells that express hERG
[7] = biological target: T2, hERG (KCNH2); assay: Inhibition of human ERG expressed in HEK293 cells assessed as inhibition of tail current at holding potential of -70 mV at 1 uM after 10 mins by whole-cell patch clamp method relative to control; type: cell-based; details: HEK293 cells that express hERG
[8] = biological target: T2, hERG (KCNH2); assay: Inhibition of human ERG expressed in HEK293 cells assessed as inhibition of tail current at holding potential of -70 mV at 3.16 uM after 10 mins by whole-cell patch clamp method relative to control; type: cell-based; details: HEK293 cells that express hERG
[9] = biological target: T3, Prostaglandin G/H synthase 2 (Homo sapiens, UniProt P35354); assay: Inhibition of human recombinant COX2 expressed in Sf21 cells assessed as PGE2 production using arachidonic acid as substrate preincubated for 15 mins measured after 5 mins by EIA
T3 sequence (P35354 whole entry): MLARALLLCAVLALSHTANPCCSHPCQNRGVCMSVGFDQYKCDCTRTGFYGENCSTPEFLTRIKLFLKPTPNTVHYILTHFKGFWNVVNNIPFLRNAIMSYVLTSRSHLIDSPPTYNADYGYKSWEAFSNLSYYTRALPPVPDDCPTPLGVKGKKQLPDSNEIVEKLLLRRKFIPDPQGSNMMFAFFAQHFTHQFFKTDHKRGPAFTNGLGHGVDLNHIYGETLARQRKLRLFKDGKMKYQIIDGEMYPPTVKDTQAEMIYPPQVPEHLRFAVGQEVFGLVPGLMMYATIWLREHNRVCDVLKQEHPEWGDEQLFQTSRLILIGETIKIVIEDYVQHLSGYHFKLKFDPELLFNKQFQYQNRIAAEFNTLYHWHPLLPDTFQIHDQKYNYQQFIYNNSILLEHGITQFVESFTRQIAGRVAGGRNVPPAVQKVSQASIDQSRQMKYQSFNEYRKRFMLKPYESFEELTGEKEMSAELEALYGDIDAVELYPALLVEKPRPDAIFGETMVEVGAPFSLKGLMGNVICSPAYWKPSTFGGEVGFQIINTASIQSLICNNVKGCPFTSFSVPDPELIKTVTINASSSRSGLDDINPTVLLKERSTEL

[10] = biological target: T1, Prostaglandin G/H synthase 1; assay: Inhibition of human platelets COX1 assessed as PGE2 production using arachidonic acid as substrate preincubated for 15 mins measured after 15 mins by EIA

T1 sequence (P23219 whole entry): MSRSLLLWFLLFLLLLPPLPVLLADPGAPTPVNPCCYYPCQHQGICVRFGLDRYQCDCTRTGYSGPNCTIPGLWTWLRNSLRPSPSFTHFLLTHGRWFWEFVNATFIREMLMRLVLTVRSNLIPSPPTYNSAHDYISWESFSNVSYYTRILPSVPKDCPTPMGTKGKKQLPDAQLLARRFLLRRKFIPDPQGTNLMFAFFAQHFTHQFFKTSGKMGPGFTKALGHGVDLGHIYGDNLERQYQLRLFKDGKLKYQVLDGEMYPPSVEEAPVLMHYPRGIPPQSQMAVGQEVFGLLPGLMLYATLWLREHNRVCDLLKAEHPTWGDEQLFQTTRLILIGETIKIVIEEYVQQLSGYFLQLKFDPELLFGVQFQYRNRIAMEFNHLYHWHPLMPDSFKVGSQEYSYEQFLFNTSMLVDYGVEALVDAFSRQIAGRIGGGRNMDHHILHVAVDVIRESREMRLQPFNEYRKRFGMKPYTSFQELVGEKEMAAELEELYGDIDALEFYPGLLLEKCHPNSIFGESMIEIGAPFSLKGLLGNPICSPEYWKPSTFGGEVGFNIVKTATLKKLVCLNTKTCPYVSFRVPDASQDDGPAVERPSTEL
T2 sequence (Q12809 whole entry): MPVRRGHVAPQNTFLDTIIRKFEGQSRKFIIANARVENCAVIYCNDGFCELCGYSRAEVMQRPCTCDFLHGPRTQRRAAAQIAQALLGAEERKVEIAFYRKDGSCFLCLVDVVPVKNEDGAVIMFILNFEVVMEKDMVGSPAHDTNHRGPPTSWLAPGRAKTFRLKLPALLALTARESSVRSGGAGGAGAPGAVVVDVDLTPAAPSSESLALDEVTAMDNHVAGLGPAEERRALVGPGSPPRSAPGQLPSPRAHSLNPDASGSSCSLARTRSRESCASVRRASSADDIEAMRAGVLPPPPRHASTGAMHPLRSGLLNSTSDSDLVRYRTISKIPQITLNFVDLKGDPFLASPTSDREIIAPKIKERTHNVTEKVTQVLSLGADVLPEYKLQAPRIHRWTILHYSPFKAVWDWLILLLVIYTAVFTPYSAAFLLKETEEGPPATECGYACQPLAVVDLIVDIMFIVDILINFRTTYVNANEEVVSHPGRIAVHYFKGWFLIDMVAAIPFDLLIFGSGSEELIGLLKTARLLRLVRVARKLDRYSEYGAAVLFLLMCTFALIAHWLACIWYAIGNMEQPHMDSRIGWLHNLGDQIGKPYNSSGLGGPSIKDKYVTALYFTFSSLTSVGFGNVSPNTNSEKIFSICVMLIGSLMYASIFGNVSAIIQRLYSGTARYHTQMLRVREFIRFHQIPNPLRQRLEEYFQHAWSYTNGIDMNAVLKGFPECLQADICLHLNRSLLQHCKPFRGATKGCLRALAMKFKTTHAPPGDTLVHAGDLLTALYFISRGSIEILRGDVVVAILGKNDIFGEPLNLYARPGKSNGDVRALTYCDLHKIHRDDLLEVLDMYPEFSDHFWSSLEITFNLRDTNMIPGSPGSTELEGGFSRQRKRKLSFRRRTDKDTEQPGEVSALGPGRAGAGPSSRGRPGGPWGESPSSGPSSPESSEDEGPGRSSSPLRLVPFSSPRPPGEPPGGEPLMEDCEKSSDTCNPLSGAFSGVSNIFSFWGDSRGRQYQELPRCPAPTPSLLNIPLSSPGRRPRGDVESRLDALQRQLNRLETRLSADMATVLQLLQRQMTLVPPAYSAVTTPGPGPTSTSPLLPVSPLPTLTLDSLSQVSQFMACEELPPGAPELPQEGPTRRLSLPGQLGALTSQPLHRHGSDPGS

C[S+](=N)([O-])c1ccc(C2=C(c3ccccc3)C(=O)OC2)cc1 (stereo unspecified)
inhibition [1]: 26% | inhibition at 10 min, 100 µM [2]: 29.6% | inhibition at 10 min, 3.16 µM [3]: 7% | inhibition at 10 min, 31.6 µM [4]: 27.6% | inhibition at 10 min, 10 µM [5]: 20% | inhibition at 10 min, 1 µM [6]: 1.7% | inhibition at 10 min, 1 µM [7]: -0.1%

CS(=O)(=O)c1ccc(C2=C(c3ccccc3)C(=O)OC2)cc1 [ROFECOXIB]
inhibition at 10 min, 100 µM [2]: 27.6% | inhibition at 10 min, 3.16 µM [3]: 8.3% | inhibition at 10 min, 3.16 µM [8]: -10.2% | inhibition at 10 min, 31.6 µM [4]: 19.1% | inhibition at 10 min, 10 µM [5]: 10.4% | inhibition at 10 min, 1 µM [6]: 6.8%

CN=[S+](C)([O-])c1ccc(C2=C(c3ccccc3)C(=O)OC2)cc1 (stereo unspecified)
inhibition [1]: 10% | IC50 [9]: 156 nM | IC50 [10]: 42.4 nM
